Results reported in patent publication US20070196902A1, “Method of detecting AZT resistance in HIV” (University of Pittsburgh, priority 2006, published 2007).
Where two headings read alike, the source gives them in different places.

Experiments:
[1] = test system: wild-type HIV-1LAI passaged in MT-2 cells in increasing concentrations of AZT; experiment: AZT susceptibility of virus passaged in increasing AZT, selection starting with wild-type HIV-1LAI; single-cycle assay in P4/R5 cells; assay type: cell-based; conditions: for Fold-Resistance: compared to wild-type passaged without AZT
Experimental: Selection of AZT-resistant viruses. Resistant virus was selected in two independent experiments by the passage of wild-type HIVLAI or HIVLAI containing the M41L/L210W/T215Y mutations (AZT^R HIVLAI) in MT-2 cells in increasing concentrations of AZT. To initiate each selection experiment, MT-2 cells (1×10^6) were pretreated for two hours with 0.5 μM and 25 μM AZT for wild-type HIVLAI and AZT^R HIVLAI, respectively, before virus was added. Viral replication was monitored by CPE. At +3/4 CPE (3 or 4 syncytia per field at 100× magnified field), cell-free supernatant was harvested and 0.1 ml of supernatant was added to fresh MT-2 cells to initiate a new passage. The concentration of AZT was doubled every three passages. The selection pressure was increased from an initial AZT concentration of 0.5 μM to a final concentration of 32 μM for wild-type HIVLAI, and from 25 μM to 150 μM for the AZT^R HIVLAI. The concentration of drug required to inhibit viral replication by 50% (IC50) was calculated every five passages to identify changes in AZT susceptibility, and fold-resistance was determined by dividing the IC50 of the mutant virus by the IC50 of wild-type HIV-1LAI. The genotype of the passaged virus was determined as described above.
(§1) Drug susceptibility assays. NRTI susceptibility was determined in P4/R5 cells as described previously (Parikh, U. M., et al. 2005. Antimicrob. Agents Chemother. 49:1139-44). Briefly, threefold dilutions of inhibitor were added to P4/R5 cells in triplicate and cells were infected with an amount of virus that produced 100 relative units of light (RLU) in no drug, virus control wells. After 48 hours, the cells were lysed (Gal-Screen; Tropix/Applied Biosystems, Foster City, Calif.) and the RLU was measured using a ThermoLabSystems luminometer (Waltham, Mass.). The IC50 and fold-resistance were calculated as described above. IC50 values from at least three independent experiments were log10 transformed and compared for statistically significant differences using the two-sample Student's t test.
Selection of AZT-resistant virus. Two independent AZT selection experiments were conducted. One starting with wild-type HIV-1LAI and the second starting with AZT HIV-1LAI (encoding M41L/L210W/T215Y). Both viruses were serially passaged in MT-2 cells in increasing concentrations of AZT. After every 5 passages, AZT susceptibility was measured in a single-cycle viral replication assay in P4/R5 cells (described in Materials and Methods). Viral RNA was extracted, converted to cDNA and the entire coding region of RT (residues 1-560) was PCR amplified and sequenced to monitor the appearance of mutations. In the selection experiment starting with HIV-1LAI, AZT susceptibility was reduced 66-fold by passage 35 and two polymerase domain TAMs were identified: D67N and K70R (Table 1).

HIV-1 RT H539N = conditions: H539N mutation; cited from earlier work
HIV-1 RT D549N = conditions: D549N mutation; cited from earlier work
[2] = test system: HIV-1 RT A360I with "classic" TAMs; conditions: A360I present with "classic" TAMs; cited from earlier work
HIVLAI RT 67N/70R/371V = experiment: Drug susceptibility assay in P4/R5 cells, site-directed mutant; assay type: cell-based, HIV-1
Experimental: as §1
(§2) Construction of mutant recombinant HIV-1. Mutant recombinant plasmid clones of virus were generated by oligonucleotide site-directed mutagenesis as described previously (Shi, C., and J. W. Mellors. 1997. A recombinant retroviral system for rapid […] analysis of human immunodeficiency virus type 1 susceptibility to reverse transcriptase inhibitors. Antimicrob. Agents Chemother. 41:2781-5), using the p6HRT-MO plasmid. p6HRT-MO contains the entire RT and protease coding sequence as previously described (Le Grice, S. F., and F. Gruninger-Leitch. 1990. Rapid purification of homodimer and heterodimer HIV-1 reverse transcriptase by metal chelate affinity chromatography. Eur. J. Biochem. 187:307-14) and four silent restriction sites (Xma I, Mlu I, Xba I, and NgoM IV from the 5′ to 3′ end of RT at codons 14, 358, 490 and 554, respectively). After site-directed mutagenesis (QIAamp kit, QIAGEN, Valencia, Calif.), the mutated RT was ligated into pxxHIV-1LAI MO that contains the entire genome of HIV-1LAI and the same silent restriction sites as p6HRT-MO. Infectious virus was generated by electroporating the mutated xxHIV-1LAI MO plasmid into MT-2 cells as described above. All mutations in recombinant viruses were confirmed by full-length sequencing of the entire RT coding region.

HIVLAI RT A371V = experiment: as above; assay type: cell-based, HIV-1
Experimental: as §1, §2

HIVLAI RT 67N/70R/215I = experiment: as above; assay type: cell-based, HIV-1
Experimental: as §1, §2

[3] = test system: HIVLAI RT D67N/K70R/T215F; experiment: as above; assay type: cell-based, HIV-1
Experimental: as §1, §2

[4] = test system: HIV-1 RT mutants with A371V and/or Q509L, alone or in combination with TAMs; experiment: Drug susceptibility of site-directed mutants, comparisons between mutants with and without A371V/Q509L; assay type: cell-based
[5] = test system: HIV-1 RT D549N with TAMs D67N, K70R, T215Y and K219Q; conditions: D549N present with TAMs D67N; cited from earlier work
[6] = test system: HIV-1 RT G335C with "classic" TAMs; conditions: G335C present with "classic" TAMs; cited from earlier work

In the case of `Cc1cn([C@H]2C[C@H](N=[N+]=[N-])[C@@H](CO)O2)c(=O)[nH]c1=O` [AZT, 3′-azido-3′-dideoxythymidine], the IC50 ([1]; Human immunodeficiency virus 1, MT2, passage 1, AZT concentration 0.5 μM, read-out: IC50) is reported as 200 nM, the IC50 ([1]; Human immunodeficiency virus 1, MT2, passage 10, AZT concentration 0.5 μM, read-out: IC50) is reported as 300 nM and the IC50 ([1]; Human immunodeficiency virus 1, MT2, passage 20, AZT concentration 0.5 μM, read-out: IC50) is reported as 700 nM. The IC50 ([1]; Human immunodeficiency virus 1, MT2, passage 25, AZT concentration 1.0 μM, mutations: None, read-out: IC50) was 700 nM, the IC50 ([1]; Human immunodeficiency virus 1, MT2, passage 30, AZT concentration 2.0 μM, D67D/N, K70K/R, read-out: IC50) was 3000 nM and the IC50 ([1]; Human immunodeficiency virus 1, MT2, passage 35, AZT concentration 2.0 μM, D67N, K70R, read-out: IC50) was 10000 nM. For the same compound, the IC50 ([1]; Human immunodeficiency virus 1, MT2, passage 40, AZT concentration 4.0 μM, D67N, K70R, A371A/V, Q509Q/L, read-out: IC50) was 10000 nM, the IC50 ([1]; Human immunodeficiency virus 1, MT2, passage 55, AZT concentration 16 μM, D67N, K70R, T215T/I, A371A/V, Q509Q/L, read-out: IC50) was 39000 nM and the IC50 ([1]; Human immunodeficiency virus 1, MT2, passage 60, AZT concentration 32 μM, D67N, K70R, T215I, A371A/V, Q509L, read-out: IC50) was 56000 nM. For the same compound, the IC50 ([1]; Human immunodeficiency virus 1, MT2, passage 65, AZT concentration 32 μM, D67N, K70R, T215I/F, A371A/V, Q509L) was ≥ 810000 nM, the Fold-Resistance ([1]; passage 25, mutations: None) was 4.1 fold and the Fold-Resistance ([1]; passage 30, D67D/N, K70K/R) was 26 fold. For the same compound, the Fold-Resistance ([1]; passage 35, D67N, K70R) was 66 fold, the Fold-Resistance ([1]; passage 40, D67N, K70R, A371A/V, Q509Q/L) was 86 fold and the Fold-Resistance ([1]; passage 55, D67N, K70R, T215T/I, A371A/V, Q509Q/L) was 255 fold. For the same compound, the Fold-Resistance ([1]; passage 60, D67N, K70R, T215I, A371A/V, Q509L) was 489 fold, the “increase in resistance (reduced susceptibility)” value (HIV-1 RT H539N) was 180 fold and the “increase in resistance (reduced susceptibility)” value (HIV-1 RT D549N) was 12 fold. The “reduction of AZT susceptibility” value [2] was 30 fold, the Fold-Resistance (HIVLAI RT 67N/70R/371V; 67N/70R/371V compared to wild-type) was 6.4 fold and the IC50 (HIVLAI RT 67N/70R/371V; Human immunodeficiency virus 1, P4/R5, 67N/70R/371V, mean ± SD) was 1400 ± 500 nM. For the same compound, the Fold-Resistance (HIVLAI RT A371V; A371V compared to wild-type) was 0.7 fold, the IC50 (HIVLAI RT A371V; Human immunodeficiency virus 1, P4/R5, A371V, mean ± SD) was 200 ± 40 nM and the Fold-Resistance (HIVLAI RT 67N/70R/215I; 67N/70R/215I compared to wild-type) was 1.3 fold. The IC50 (HIVLAI RT 67N/70R/215I; Human immunodeficiency virus 1, P4/R5, 67N/70R/215I, mean ± SD) was 300 ± 200 nM, the Fold-Resistance ([3]; 67N/70R/215F compared to wild-type) was 18 fold and the IC50 ([3]; Human immunodeficiency virus 1, P4/R5, 67N/70R/215F, mean ± SD) was 3800 ± 2100 nM. For the same compound, the “greater AZT resistance conferred by T215F than T215I” value ([4]; T215F versus T215I) was ~25 fold, the “AZT resistance conferred by A371V and Q509L, alone or together” value ([4]; in the absence of TAMs) was “did not confer AZT resistance” and the increase in resistance [5] was 1,230 fold. For the same compound, the “reduction of AZT susceptibility” value [6] was 30 fold.
